Laboratory results reported in article PMC8486872, “A rational blueprint for the design of chemically-controlled protein switches” (Nature Communications, 2021).
“And” between values parts separate entries of the source, which are not always exact repeats. Identical values can stand only once.

Tested on: SEAP and Luciferase expression in HEK293T cells
Test: SIMO designer cells (AIR-1/2-GEMS + CDH-1/2-TF)
Type: cell-based
Design: Bottom (best-fit value) / Top (best-fit value) / Span (best-fit value): unit not given here
Conditions: for logIC50 (best-fit value): drug in nM
Excerpt: Fig. 5 Orthogonal chemical switches enable implementation of multi-input multi-output control modes in mammalian cells. a Scheme of multi-inputs multi-outputs (MIMO) designer cells where two drugs control two different outputs. b, c Cells were co-transfected with AIR-1/2-GEMS and CDH-3-TF regulate SEAP and Luciferase expression, respectively. […] AIR-1/2-GEMS coupled with SEAP expression circuits were co-transfected with CDH-1/2-TF circuits which control the Luciferase production. Respective drug concentrations ranged from 0.001 nM to 1 µM. All values presented are mean ± s.d. of three replicates and curves were fitted by four-parameters nonlinear regression. b, c, e, f, h, i Source data are available in the source data file.
Finally, we engineered SIMO cells (Fig. 5g) using two designed switches that produce ON and OFF responses upon exposure to the same drug. We transfected cells with combinations of AIR-GEMS and CDH-TFs which controlled the expression of the reporter proteins SEAP and Luciferase, respectively. […] Therefore, computational design expanded the repertoire of protein switches controlled by the same compounds that can be used to simultaneous turn ON and OFF synergistic outputs. […]
AIR-1-GEMS coupled with SEAP expression circuits (i) and CDH-1-TF circuits which control the Luciferase production (j). j-k) Quantification of SEAP and Luciferase activities under Drug-2. AIR-2-GEMS coupled with SEAP expression circuits (k) and CDH-2-TF circuits which control the Luciferase production (l). b-k) Each data point represents the mean of n = 3 biological replicates, and the dose-dependent curve were fitted using four-parameter nonlinear regression.

[1] = Fig S13i, CDH-1-TF control Luciferase expression only, Drug-1 0.01 nM
[2] = Fig S13i, CDH-1-TF control Luciferase expression only, Drug-1 10 nM
[3] = Fig S13i, CDH-1-TF control Luciferase expression only, Drug-1 31.6 nM
[4] = Fig S13i, CDH-1-TF control Luciferase expression only, Drug-1 100 nM
[5] = Fig S13i, CDH-1-TF control Luciferase expression only, Drug-1 316 nM
[6] = Fig S13h, AIR-1-GEMS control SEAP expression only, Drug-1 0.01 nM
[7] = Fig S13h, AIR-1-GEMS control SEAP expression only, Drug-1 0.1 nM
[8] = Fig S13h, AIR-1-GEMS control SEAP expression only, Drug-1 1 nM
[9] = Fig S13h, AIR-1-GEMS control SEAP expression only, Drug-1 316 nM
[10] = sheet Figure5h, Luciferase, four-parameter fit
[11] = sheet Figure5h, SEAP, four-parameter fit

CN(C)CC#Cc1ccc(OCCCc2sc(N3CCc4cccc(C(=O)Nc5nc6ccccc6s5)c4C3)nc2C(=O)O)c(F)c1 [Drug-1, A-1155463]
SEAP and Luciferase outputs in SIMO cells (0.001 nM to 1 µM): simultaneously activated SEAP production and suppressed the expression of Luciferase
SEAP (Fig5h, turn ON via AIR-1-GEMS, 0.001 nM): 19.8743 U/L and 19.5134 U/L and 15.1383 U/L
SEAP (Fig5h, turn ON via AIR-1-GEMS, 0.005 nM): 19.2907 U/L and 17.6338 U/L and 18.8337 U/L
SEAP (Fig5h, turn ON via AIR-1-GEMS, 0.01 nM): 18.6271 U/L and 21.8407 U/L and 37.1349 U/L
SEAP (Fig5h, turn ON via AIR-1-GEMS, 0.05 nM): 37.9776 U/L and 52.7802 U/L and 54.2278 U/L
SEAP (Fig5h, turn ON via AIR-1-GEMS, 0.1 nM): 39.7647 U/L and 50.8999 U/L and 76.4896 U/L
SEAP (Fig5h, turn ON via AIR-1-GEMS, 0.5 nM): 46.7816 U/L and 46.7958 U/L and 68.9342 U/L
SEAP (Fig5h, turn ON via AIR-1-GEMS, 1 nM): 36.1123 U/L and 44.1109 U/L and 47.7004 U/L
SEAP (Fig5h, turn ON via AIR-1-GEMS, 5 nM): 163.102 U/L and 218.766 U/L and 249.722 U/L
SEAP (Fig5h, turn ON via AIR-1-GEMS, 10 nM): 315.129 U/L and 324.74 U/L and 353.471 U/L
SEAP (Fig5h, turn ON via AIR-1-GEMS, 50 nM): 364.997 U/L and 306.053 U/L and 339.025 U/L
SEAP (Fig5h, turn ON via AIR-1-GEMS, 100 nM): 443.801 U/L and 453.931 U/L and 405.497 U/L
SEAP (Fig5h, turn ON via AIR-1-GEMS, 500 nM): 488.063 U/L and 432.803 U/L and 436.708 U/L
SEAP (Fig5h, turn ON via AIR-1-GEMS, 1000 nM): 411.613 U/L and 466.826 U/L and 364.664 U/L
Luciferase (Fig5h, via CDH-1-TF, 0.005 nM): 13170 and 13560 and 13671
Luciferase (Fig5h, via CDH-1-TF, 0.01 nM): 14134 and 13430 and 12324
Luciferase (Fig5h, via CDH-1-TF, 0.05 nM): 14625 and 13685 and 11174
Luciferase (Fig5h, via CDH-1-TF, 0.5 nM): 10957 and 11915 and 9777
Luciferase (Fig5h, via CDH-1-TF, 1 nM): 11394 and 11027 and 9891
Luciferase (Fig5h, via CDH-1-TF, 5 nM): 9387 and 10202 and 8501
Luciferase (Fig5h, via CDH-1-TF, 10 nM): 9897 and 9353 and 8698
Luciferase (Fig5h, via CDH-1-TF, 50 nM): 8493 and 5450 and 4767
Luciferase (Fig5h, via CDH-1-TF, 100 nM): 6159 and 4105 and 3304
Luciferase (Fig5h, via CDH-1-TF, 500 nM): 6685 and 4541 and 3781
Luciferase [1]: 4.631 RLU and 4.974 RLU and 6.289 RLU
SEAP [1]: 47563 U/L and 58731 U/L and 59991 U/L
SEAP (Fig S13i, CDH-1-TF control Luciferase expression only, Drug-1 0.1 nM): 53899 U/L and 50028 U/L and 61321 U/L
SEAP (Fig S13i, CDH-1-TF control Luciferase expression only, Drug-1 1 nM): 51520 U/L and 52067 U/L and 58888 U/L
SEAP (Fig S13i, CDH-1-TF control Luciferase expression only, Drug-1 3.16 nM): 43654 U/L and 44498 U/L and 55865 U/L
Luciferase [2]: 5.35 RLU and 3.637 RLU and 4.7853 RLU
SEAP [2]: 47243 U/L and 36047 U/L and 43911 U/L
Luciferase [3]: 10.558 RLU and 9.125 RLU and 9.89 RLU
SEAP [3]: 41739 U/L and 35234 U/L and 36053 U/L
Luciferase [4]: 6.8735 RLU and 7.9639 RLU and 7.26 RLU
SEAP [4]: 32885 U/L and 32749 U/L and 33680 U/L
Luciferase [5]: 7.503 RLU and 9.5502 RLU and 5.763 RLU
SEAP [5]: 36324 U/L and 29686 U/L and 32588 U/L
SEAP (Fig S13i, CDH-1-TF control Luciferase expression only, Drug-1 1000 nM): 22215 U/L and 22717 U/L and 21612 U/L
Luciferase [6]: 7.197 RLU and 7.213 RLU and 7.2493 RLU
SEAP [6]: 251 U/L and 231 U/L and 325 U/L
Luciferase [7]: 7.338 RLU and 6.8 RLU and 5.088 RLU
SEAP [7]: 201 U/L and 203 U/L and 381 U/L
Luciferase [8]: 9.026 RLU and 10.0168 RLU
SEAP [8]: 267 U/L and 249 U/L and 441 U/L
SEAP (Fig S13h, AIR-1-GEMS control SEAP expression only, Drug-1 3.16 nM): 363 U/L and 301 U/L and 409 U/L
SEAP (Fig S13h, AIR-1-GEMS control SEAP expression only, Drug-1 10 nM): 551 U/L and 601 U/L
SEAP (Fig S13h, AIR-1-GEMS control SEAP expression only, Drug-1 31.6 nM): 639 U/L and 579 U/L and 471 U/L
SEAP (Fig S13h, AIR-1-GEMS control SEAP expression only, Drug-1 100 nM): 421 U/L and 435 U/L and 441 U/L
Luciferase [9]: 232.378 RLU and 215.546 RLU and 184.304 RLU
SEAP [9]: 301 U/L and 339 U/L and 443 U/L
Luciferase (Fig S13h, AIR-1-GEMS control SEAP expression only, Drug-1 1000 nM): 239.146 RLU and 224.11 RLU and 201.76 RLU
Bottom (best-fit value) [10]: 1591
HillSlope (best-fit value) [10]: -0.5534
Span (best-fit value) [10]: 8125
Top (best-fit value) [10]: 9717
logIC50 (best-fit value) [10]: 1.252
IC50 (sheet Figure5h, Luciferase, four-parameter fit, read-out: IC50 (best-fit value)): 17.9 nM
Bottom (best-fit value) [11]: 10.72
HillSlope (best-fit value) [11]: 0.8045
Span (best-fit value) [11]: 94.16
Top (best-fit value) [11]: 104.9
logIC50 (best-fit value) [11]: 1.797
